In patent US7259166B2, “Substituted-cycloalkyl and oxygenated-cycloalkyl glucokinase activators” (Hoffmann-La Roche Inc., priority 2002, dated 2007):

Experiments:
C57BL/6J mice = test: Glucokinase activator in vivo screen (blood glucose after oral dosing); conditions: oral gavage 50 mg/kg, two hour fast, blood glucose at 1, 2, 4 and 6 hours post dose
Method: Glucokinase Activator In Vivo Screen Protocol
C57BL/6J mice are orally dosed via gavage with Glucokinase (GK) activator at 50 mg/kg body weight following a two hour fasting period. Blood glucose determinations are made five times during the six hour post-dose study period.
Mice (n=6) are weighed and fasted for a two hour period prior to oral treatment.

melting point [°C]	SMILES	glucokinase activator in vivo activity when administered orally (decrease in blood glucose compared to vehicle) (C57BL/6J mice)
–	CS(=O)(=O)c1ccc([C@@H](CC2CCC(=NO)CC2)C(=O)Nc2cnc(Br)cn2)cc1Cl (stereo partly drawn) [Example 67, N-(5-Bromo-pyrazin-2-yl)-2(R)-(3-chloro-4-methanesulfonyl-phenyl)-3-(4-hydroxyimino-cyclohexyl)-propionamide]	excellent glucokinase activator in vivo activity
228 to 230	CS(=O)(=O)c1ccc(C(CC2CCCC2=O)C(=O)Nc2nccs2)cc1 (stereo not shown) [Example 29, 2-(4-Methanesulfonyl-phenyl)-3-(2-oxo-cyclopentyl)-N-thiazol-2-yl-propionamide]	–
–	CS(=O)(=O)c1ccc(C(CC2CCOCC2)C(=O)Nc2cnc(Br)cn2)cc1Cl (stereo not shown) [Example 21, N-(5-Bromo-pyrazin-2-yl)-2-(3-chloro-4-methanesulfonyl-phenyl)-3-(tetrahydro-pyran-4-yl)-propionamide]	excellent glucokinase activator in vivo activity
74 to 76	CO/N=C1/CCCC1CC(C(=O)Nc1cnccn1)c1ccc(S(C)(=O)=O)c(Cl)c1 (stereo not shown) [Example 33, 2-(3-Chloro-4-methanesulfonyl-phenyl)-3-(2-methoxyimino-cyclopentyl)-N-pyrazin-2-yl-propionamide]	–
94 to 97	CS(=O)(=O)c1ccc(C(CC2CCC(=O)C2)C(=O)Nc2nccs2)cc1 (stereo not shown) [Example 44, 2-(4-Methanesulfonyl-phenyl)-3-(3-oxo-cyclopentyl)-N-thiazol-2-yl-propionamide]	–
85 to 87	CO/N=C1/CCC(CC(C(=O)Nc2cnccn2)c2ccc(S(C)(=O)=O)c(Cl)c2)C1 (stereo not shown) [Example 54, 2-(3-Chloro-4-methanesulfonyl-phenyl)-3-(3-methoxyimino-cyclopentyl)-N-pyrazin-2-yl-propionamide]	excellent glucokinase activator in vivo activity
–	CS(=O)(=O)c1ccc(C(CC2CCC(=O)CC2)C(=O)Nc2cnc(Br)cn2)cc1Cl (stereo not shown) [Example 59, N-(5-Bromo-pyrazin-2-yl)-2-(3-chloro-4-methanesulfonyl-phenyl)-3-(4-oxo-cyclohexyl)-propionamide]	excellent glucokinase activator in vivo activity
69 to 72	CS(=O)(=O)c1ccc(C(CC2CCC(O)C2)C(=O)Nc2nccs2)cc1 (stereo not shown) [Example 37, 3-(3-Hydroxy-cyclopentyl)-2-(4-methanesulfonyl-phenyl)-N-thiazol-2-yl-propionamide]	–
154 to 156	O=C(Nc1nccs1)C(CC1CCC(F)(F)C1)c1ccc(Cl)c(Cl)c1 (stereo not shown) [Example 56, 2-(3,4-Dichloro-phenyl)-3-(3,3-difluoro-cyclopentyl)-N-thiazol-2-yl-propionamide]	–
–	CS(=O)(=O)c1ccc([C@@H](CC2CCC(=NO)CC2)C(=O)Nc2cnc(Cl)cn2)cc1Cl (stereo partly drawn) [Example 68, 2(R)-(3-Chloro-4-methanesulfonyl-phenyl)-N-(5-chloro-pyrazin-2-yl)-3-(4-hydroxyimino-cyclohexyl)-propionamide]	excellent glucokinase activator in vivo activity
–	CS(=O)(=O)c1ccc([C@@H](CC2CCC(=O)CC2)C(=O)Nc2cnc(Br)cn2)cc1Cl [Example 60, N-(5-Bromo-pyrazin-2-yl)-2(R)-(3-chloro-4-methanesulfonyl-phenyl)-3-(4-oxo-cyclohexyl)-propionamide]	excellent glucokinase activator in vivo activity
49 to 52	CC(=O)OC1CCC(CC(C(=O)Nc2nccs2)c2ccc(Cl)c(Cl)c2)C1 (stereo not shown) [Example 40, Acetic acid 3-[2-(3,4-dichloro-phenyl)-2-(thiazol-2-ylcarbamoyl)-ethyl]-cyclopentyl ester]	–
63 to 65	CNC(=O)NC(=O)C(CC1CCCC1=O)c1ccc(Cl)c(Cl)c1 (stereo not shown) [Example 27, 1-[2-(3,4-Dichloro-phenyl)-3-(2-oxo-cyclopentyl)-propionyl]-3-methyl-urea]	–
62 to 64	CNC(=O)NC(=O)C(CC1CCCC1O)c1ccc(Cl)c(Cl)c1 (stereo not shown) [Example 24, 1-[2-(3,4-Dichloro-phenyl)-3-(2-hydroxy-cyclopentyl)-propionyl]-3-methyl-urea]	–
98 to 101	O=C(Nc1nccs1)C(CC1CC/C(=N/O)C1)c1ccc(Cl)c(Cl)c1 (stereo not shown) [Example 50, 2-(3,4-Dichloro-phenyl)-3-(3-hydroxyimino-cyclopentyl)-N-thiazol-2-yl-propionamide]	–
146 to 148	O=C1CCC(CC(C(=O)Nc2nccs2)c2ccc(Cl)c(Cl)c2)C1 (stereo not shown) [Example 43, 2-(3,4-Dichloro-phenyl)-3-(3-oxo-cyclopentyl)-N-thiazol-2-yl-propionamide]	–

melting point [°C]	SMILES	glucokinase activator in vivo activity when administered orally (decrease in blood glucose compared to vehicle) (C57BL/6J mice)
91 to 97	CO/N=C1/CCC(CC(C(=O)Nc2cnc(Br)cn2)c2ccc(S(C)(=O)=O)c(Cl)c2)C1 (stereo not shown) [Example 55, N-(5-Bromo-pyrazin-2-yl)-2-(3-chloro-4-methanesulfonyl-phenyl)-3-(3-methoxyimino-cyclopentyl)-propionamide]	excellent glucokinase activator in vivo activity
78 to 84	CC1(O)CCC(CC(C(=O)Nc2cnccn2)c2ccc(S(C)(=O)=O)c(Cl)c2)C1 (stereo not shown) [Example 57, 2-(3-Chloro-4-methanesulfonyl-phenyl)-3-(3-hydroxy-3-methyl-cyclopentyl)-N-pyrazin-2-yl-propionamide]	–
205 to 207	CS(=O)(=O)c1ccc(C(CC2CC/C(=N/O)C2)C(=O)Nc2cnccn2)cc1Cl (stereo not shown) [Example 51, 2-(3-Chloro-4-methanesulfonyl-phenyl)-3-(3-hydroxyimino-cyclopentyl)-N-pyrazin-2-yl-propionamide]	–
69 to 72	CO/N=C1/CCC(CC(C(=O)Nc2nccs2)c2ccc(Cl)c(Cl)c2)C1 (stereo not shown) [Example 53, 2-(3,4-Dichloro-phenyl)-3-(3-methoxyimino-cyclopentyl)-N-thiazol-2-yl-propionamide]	–
137.2 to 140.5	CS(=O)(=O)c1ccc(C(CC2CCOCC2)C(=O)Nc2cnc(/C(N)=N/O)cn2)cc1Cl (stereo not shown) [Example 23]	excellent glucokinase activator in vivo activity
100 to 106	CS(=O)(=O)c1ccc(C(CC2CC/C(=N/O)C2)C(=O)Nc2cnc(Br)cn2)cc1Cl (stereo not shown) [Example 52, N-(5-Bromo-pyrazin-2-yl)-2-(3-chloro-4-methanesulfonyl-phenyl)-3-(3-hydroxyimino-cyclopentyl)-propionamide]	excellent glucokinase activator in vivo activity
205 to 206	CS(=O)(=O)c1ccc(C(CC2CCCC2O)C(=O)Nc2nccs2)cc1 (stereo not shown) [Example 26, 3-(2-Hydroxy-cyclopentyl)-2-(4-methanesulfonyl-phenyl)-N-thiazol-2-yl-propionamide]	–
70 to 74	CNC(=O)NC(=O)C(CC1CCC(=O)C1)c1ccc(Cl)c(Cl)c1 (stereo not shown) [Example 42, 1-[2-(3,4-Dichloro-phenyl)-3-(3-oxo-cyclopentyl)-propionyl]-3-methyl-urea]	–
172.8 to 174.2	CNC(=O)NC(=O)C(CC1CCCCO1)c1ccc(Cl)c(Cl)c1 (stereo not shown) [Example 7, 1-[2-(3,4-Dichloro-phenyl)-3-(tetrahydro-pyran-2-yl)-propionyl]-3-methyl urea]	–
82 to 84	CNC(=O)NC(=O)C(CC1CCC(O)C1)c1ccc(Cl)c(Cl)c1 (stereo not shown) [Example 35, 1-[2-(3,4-Dichloro-phenyl)-3-(3-hydroxy-cyclopentyl)-propionyl]-3-methyl-urea]	–
69 to 71	O=C(Nc1nccs1)C(CC1CCCO1)c1ccc(Cl)c(Cl)c1 (stereo not shown) [Example 2, 2-(3,4-Dichloro-phenyl)-3-(tetrahydro-furan-2-yl)-N-thiazol-2-yl-propionamide]	–
86 to 88	O=C(Nc1nccs1)C(CC1CCCC1O)c1ccc(Cl)c(Cl)c1 (stereo not shown) [Example 25, 2-(3,4-Dichloro-phenyl)-3-(2-hydroxy-cyclopentyl)-N-thiazol-2-yl-propionamide]	–
–	CS(=O)(=O)c1ccc(C(CC2CCC(=NO)CC2)C(=O)Nc2cnc(Br)cn2)cc1Cl (stereo not shown) [Example 66, N-(5-Bromo-pyrazin-2-yl)-2-(3-chloro-4-methanesulfonyl-phenyl)-3-(4-hydroxyimino-cyclohexyl)-propionamide]	excellent glucokinase activator in vivo activity
79 to 81	O=C1CCCC1CC(C(=O)Nc1nccs1)c1ccc(Cl)c(Cl)c1 (stereo not shown) [Example 28, 2-(3,4-Dichloro-phenyl)-3-(2-oxo-cyclopentyl)-N-thiazol-2-yl-propionamide]	–
97 to 103	CS(=O)(=O)c1ccc(C(CC2CCC(=O)C2)C(=O)Nc2cnc(Br)cn2)cc1Cl (stereo not shown) [Example 49, N-(5-Bromo-pyrazin-2-yl)-2-(3-chloro-4-methanesulfonyl-phenyl)-3-(3-oxo-cyclopentyl)-propionamide]	excellent glucokinase activator in vivo activity
–	CS(=O)(=O)c1ccc([C@@H](CC2CCC(=O)CC2)C(=O)Nc2cnc(Cl)cn2)cc1Cl [Example 61, 2(R)-(3-Chloro-4-methanesulfonyl-phenyl)-N-(5-chloro-pyrazin-2-yl)-3-(4-oxo-cyclohexyl)-propionamide]	excellent glucokinase activator in vivo activity
